Test results as given in US11141429B2, “Composition and use of macro-minerals to lower postprandial glycemic response and reduce body weight” (American University of Beirut, priority 2016, dated 2021).

Legend:
Format in all cases: in vivo, human
healthy male subjects [1] = test: Experiment 1: effect of phosphorus ingestion on oral glucose tolerance test (OGTT)
Protocol: (§1) The example was comprised of two experiments. Healthy male subjects were recruited to perform the experiments (Table 1). Placebo (cellulose) or P (125 mg of potassium phosphate per tablet) tablets, which had similar weight and color, were administered to subjects in a randomized order to prevent order-of-treatment effect. The consent forms were obtained from patients.
Seven overnight fasted subjects (age (mean±SEM): 23.2±1.83 years; BMI: 22.65±0.82 kg/m2) (Table 1: Experiment 1) were asked to attend 3 experimental sessions that were separated by a minimum of 3 days. Sessions included the consumption of either 500 mg of P (4 tablets), a glucose solution (75 g glucose) with 4 Placebo tablets, or a glucose solution (75 g glucose) with 500 mg P. All were ingested with 250 ml of cold water. Blood was withdrawn at base-line and monitored till 240 min (min) after consumption.
(§2) Serum was separated from collected blood samples and stored at −80° C. for later analysis of glucose, total P, tri-glyceride and insulin. Glucose was measured from venous samples. Insulin sensitivity was estimated by the method of Caumo A, Bergman R N, Cobelli C. Insulin sensitivity from meal tolerance tests in normal subjects: a minimal model index. J Clin. Endocrinol. Metab. 2000; 85:4396-402 and expressed as (×10^4 dl·kg^−1·min^−1·μUml^−1). The method is based on the kinetic of both glucose and insulin through coupling their rate of appearance into circulation following oral glucose ingestion. It is based on simple area under the curve type of calculation and was validated in normal subjects in whom their calculated insulin sensitivity was strongly correlated to that of frequently […] sampled IV glucose test (FSIGT). In addition, index of insulin sensitivity was calculated using the composite equation proposed by Matsuda M, DeFronzo R A. Insulin sensitivity indices obtained from oral glucose tolerance testing: comparison with the euglycemic insulin clamp. Diabetes Care. 1999; 22 (9):1462-7.
(§3) Data are presented as means±SEM. Paired t-tests were used to compare between treatments and to detect the difference from baseline within each treatment. Repeated Measure ANOVA was run to test the effect of treatment groups over time on each of the dependent variables (P, Glucose and insulin). The level of significance was fixed at P <0.05.

healthy male subjects [2] = test: Experiment 2: effect of pre-phosphorus ingestion (60 min before glucose) on OGTT
Protocol: as §1
Based on data from experiment 1, peak serum P concentration (60 min) was associated with significant decrease in serum glucose and insulin levels. Thus, experiment 2 was designed to investigate whether P intake one hour prior to glucose ingestion would potentiate the effect of P on postprandial glucose and insulin levels. Eight over-night fasted subjects (age: 27.3±1.68 years; BMI: 23.5±0.97 kg/m^2) (Table 1: Experiment 2) attended 2 experimental sessions that were separated by a minimum of 3 days. Subjects were given placebo or P (500 mg) tab-lets 60 min prior to glucose ingestion. Blood was drawn at baseline (−60 min) and monitored till 240 min relative to glucose ingestion.
as §2, §3

[3] = test system: subjects (unrestrained eaters, stable body weight); test: Ad libitum energy intake at subsequent meal after preloads with or without phosphorus; conditions: for Energy intake (ad libitum) at subsequent meal +P: lunch 80 min after preload, mean ± s.d.
Protocol: A preliminary set of experiments was conducted to investigate the effect of increased phosphorus content of a preload solution on subsequent food intake. The effect of water, sucrose (50 g), fructose (40 g fructose plus 10 g glucose) or glucose (50 g) preloads was examined with or without the addition of 500 mg of phosphorus (mixture of potassium and sodium phosphate). This work was approved by the Institutional Review Board of the American University of Beirut and written informed consent was obtained from all subjects. In brief, participants who had stable body weight for the last 3 months and were unrest-rained eaters as assessed by the three-factor eating questionnaire were selected. All subjects were regular breakfast consumers and were asked to maintain their regular dietary and physical activity habits throughout the course of the example. Subjects were asked to avoid alcohol consumption, as well as any unusual strenuous exercise 24 h before the example. After a minimum of a 12-h fast, they consumed a standard breakfast (440 kcal) 4 h before presenting for the example. Participants chose a time between 1100 and 1400 to be convenient to perform the test; thereafter, they were asked to arrive at the same time on the same day of the week for the second study session. Thus, each experiment used a within-subject design, wherein each participant served as his or her own control.
In each experiment, two chilled preloads (with or without added phosphorus) were offered in a blind randomized order so as to control for the order-of-treatment effect. Each subject presented for two study days separated by a minimum of 1 week. […] At 80 min after the preload, an ad libitum lunch, consisting of standard pizza and water, was offered. Subjects were asked to eat freely until they felt ‘comfortably full’; both food and water intakes were measured. Water intake was measured by weight (g) and food or energy intake (kcal) was obtained from the overall weight of pizza consumed.

lean male subjects = test: Postprandial energy expenditure after high carbohydrate meal with or without P (ventilated hood); conditions: 500 Kcal high carbohydrate meal with 500 mg of P
Protocol: The objective was to determine the effect of phosphorus (P) ingestion with high carbohydrate meal on postprandial energy expenditure. P ingestion increases postprandial thermogenesis of the subjects.
A cross over study was conducted on six lean male subjects. Subjects received a 500 Kcal high carbohydrate meal (CHO: 65% E; Fat: 31% E; Protein: 4% E) with (500 mg of P) or without P. Energy expenditure was measured at baseline and at 30 minute intervals for 4 hours following meal ingestion using a ventilated hood and canopy system COSMED QUARK CPET unit.

overweight/obese adults = test: 12-week double-blind randomized placebo-controlled phosphorus supplementation study
Protocol: Participants: After approval of the study by the institutional review board at the American University of Beirut (Beirut, Lebanon), 63 adults aged 18 to 45 years with a BMI ≥25 kgm−2, who provided signed informed consent, were recruited from the general public using poster advertisements or direct approach. Exclusion criteria included glomerular filtration rate of 60 ml min−1 per 1.73 m^2, presence of any significant medical disease, pregnancy or lactation, regular administration of drugs that affect body weight and weight change of ≥3% within 3 months before the study. The enrollment of 40 subjects (20 per group) would detect a 10% change in weight of the placebo group, assuming the latter having a mean weight of 90 kg and s.d. of 10 kg, with 80% power and an a of 5%.
This double-blind, randomized, controlled study allocated subjects into placebo group (n=21) or phosphorus group (n=26). Participants were requested to take three tablets containing either 375 mg phosphorus or a placebo (Nutricap Labs, Farmingdale, N.Y., USA) with each main meal (breakfast, lunch and dinner) for 12 weeks. They were asked to maintain regular dietary and physical activity habits during the entire study course and avoid alcohol consumption and any strenuous exercise 24 h before their visits (at baseline, 6 weeks and 12 weeks). Assignment to intervention or control group was made by having the principle investigator (corresponding author) ask the eligible subjects to blindly draw an envelope from a large box of 100 opaque, sealed envelopes (50 for each group), each containing a 2-cm by 2-cm paper with a written code designating intervention or control. There were no detectable differences in size or weight between intervention and control envelopes. In addition, both researchers and participants were blinded for the type of supplements that were similar in size, shape, color and odor.
Subjects were asked to attend the research unit at baseline and after 6 and 12 weeks of participation. At baseline, anthropometric measurements and blood samples were collected and a subjective appetite questionnaire based on Wilson et al. Appetite assessment: simple appetite questionnaire predicts weight loss in community-dwelling adults and nursing home residents. AJCN 2005; 82:1074-1081 was completed. Participants were given a 6-week supply of the allocated supplement and were asked to attend the research unit at the end of this period. At 6 weeks, remaining tablets were collected and counted in order to assess adherence to the allocated intervention. Participants were then given a supply of the same type of supplementation for the consequent 6 weeks and were asked to complete the subjective appetite questionnaire. At 12 weeks, data were collected similar to the baseline visit, and remaining tablets were counted to assess compliance. Individuals who consumed […] of the allocated tablets were excluded. Body weight and height (without shoes) were measured to the nearest 0.1 kg and 0.1 cm, using a calibrated Seca balance (Hamburg, Germany) and a portable stadiometer, respectively. […] Serum phosphorus, creatinine, C-reactive protein, total cholesterol, high-density lipoprotein cholesterol, triglyceride and glucose levels were measured using the Vitros 350 analyzer (Ortho Clinical Diagnostics, Johnson and Johnson, Buckinghamshire, UK). […] Fasting insulin concentration was measured using the ELISA kit (Diametra Millipore, Billerica, Mass., USA). […]

[4] = Experiment 2 (n = 8), 500 mg P 60 min prior to 75 g glucose, mean ± SEM

[P] [Phosphorus, phosphorus]
Postprandial insulin concentration (healthy male subjects [1]; 500 mg P alone): did not alter postprandial insulin concentration | Postprandial serum P (healthy male subjects [1]; 500 mg P alone): increased serum P significantly | Decrease in postprandial serum glucose concentration (healthy male subjects [1]; 500 mg P alone, during the experimental session (240 min), believed to be the result of fasting): around 5 mg/dl | Insulin sensitivity [29] (healthy male subjects [1]; Experiment 1 (n = 7), 500 mg P co-ingested with 75 g glucose, mean ± SEM, Caumo et al. formula): 20.22 ± 6.65 ×10^4 dl·kg^−1·min^−1·μUml^−1 | Insulin sensitivity index [30] (healthy male subjects [1]; Experiment 1 (n = 7), 500 mg P co-ingested with 75 g glucose, mean ± SEM, Matsuda composite equation): 7.00 ± 1.06 | Insulin levels vs glucose treatment (healthy male subjects [1]; G+P (75 g glucose + 500 mg P), time 60 min, P=0.002): significantly lower | Magnitude of increase in postprandial serum glucose vs glucose treatment (healthy male subjects [1]; G+P (75 g glucose + 500 mg P), time 60 min, P=0.016): significantly lower | Magnitude of insulin increase vs placebo preload (healthy male subjects [2]; 500 mg P preload 60 min before 75 g glucose): modestly lower | Serum P levels following P ingestion (healthy male subjects [2]; 500 mg P preload 60 min before glucose, time 0 and 15 min, then returned to baseline): increased significantly | Insulin sensitivity [29] (healthy male subjects [2]; [4]): 18.39 ± 3.28 ×10^4 dl·kg^−1·min^−1·μUml^−1 | Insulin sensitivity index [30] (healthy male subjects [2]; [4]): 8.88 ± 0.78 | Energy intake (ad libitum) at subsequent meal +P ([3]; Fructose (40 g fructose plus 10 g glucose) preload with 500 mg added phosphorus): 676 ± 404 kcal | Energy intake (ad libitum) at subsequent meal +P ([3]; Glucose (50 g) preload with 500 mg added phosphorus): 652 ± 291 kcal | Energy intake (ad libitum) at subsequent meal +P ([3]; Sucrose (50 g) preload with 500 mg added phosphorus): 532 ± 341 kcal | Energy intake (ad libitum) at subsequent meal +P ([3]; Water preload with 500 mg added phosphorus): 1119 ± 210 kcal | Reduction in energy intake at the subsequent meal ([3]; phosphorus added to fructose preload): 35% | Reduction in energy intake at the subsequent meal ([3]; phosphorus added to glucose preload): 25% | Reduction in energy intake at the subsequent meal ([3]; phosphorus added to sucrose preload): 33% | Reduction in energy intake at the subsequent meal ([3]; phosphorus added to water preload): 27% | Postprandial energy expenditure vs placebo (lean male subjects; 4 hours, p=0.007): significantly higher | Fat oxidation (%) (lean male subjects; p=0.022): significant rise | Carbohydrate oxidation (%) (lean male subjects; p=0.023): decreased | Change in BMI from baseline (overweight/obese adults; 375 mg phosphorus with each main meal, 12 weeks, 95% CI −0.59 to 0.12, P=0.01 vs placebo): −0.24 kgm−2 | Decrease in body weight from baseline (overweight/obese adults; 375 mg phosphorus with each main meal, 12 weeks, 95% CI −1.69 to 0.40, P=0.01 vs placebo): 0.65 kg | Reduction in waist circumference from baseline (overweight/obese adults; 375 mg phosphorus with each main meal, 12 weeks, 95% CI −4.90 to −2.33): 3.62 cm | Changes in subjective appetite scores (appetite, quantity of food to reach fullness, taste of food, number of snacks) vs placebo (overweight/obese adults; baseline to 12 weeks): significantly reduced | Side effects (overweight/obese adults; over the experimental period (12 weeks)): No side effects were reported
